# US9345682B2, “Inhibition of STAT3 signal transduction for human cancer therapy” (University of South Florida, priority 1999, dated 2016)
# What was measured:
# [1] = system: MOPC tumors; test: TUNEL assay of MOPC tumors; type: in vivo, BALB/c mice; settings: regressing MOPC tumors
# Procedure: Terminal deoxynucleotidyltransferase-mediated dUTP-Digoxigenin nick-end-labeling (TUNEL) assay. MOPC tumors that receive either AG-490 or 50% DMSO treatment are used for this assay. Three-μm sections from paraffinized tissues are dewaxed and rehydrated according to standard protocols. After incubation with proteinase K (30 min at 21° C.), the TUNEL reaction mixture (Boehringer Mannheim, Indianapolis, Ind.) is added to rinsed slides, which are incubated in a humidified chamber for […] at 37° C. This is followed by incubating with Converter-AP (50 ml) and substrate solution (50 ml). The reaction is visualized by light microscopy.
# [2] = system: splenocytes; test: IL-12-induced IFN-g production by splenocytes ex vivo; type: in vivo; settings: mice treated i.p. with AG-490 (0.5 mg) daily 4 days, rIL-12 last two days
# Procedure: Mice are treated daily with i.p. injections of […] of AG-490 (0.5 mg) or DMSO vehicle (50%) for a total of 4 days. During the last two days of AG-490 or DMSO treatment, daily i.p. injection of 400 ng of recombinant IL-12 (rIL-12) (Genetics Institute, Cambridge, Mass.) is also given simultaneously with either AG-490 or DMSO. Two days after the last treatment of AG-490, single cell suspensions of splenocytes are prepared from individual mice. The splenocytes are treated with 100 U/ml rIL-2 to induce IFN-g production. IFN-g ELISA (Genzyme, Cambridge, Mass.) is performed as described previously (Tan, et al., 1996, Cancer Res 56:3399).
# [3] = system: Bcl-2; test: Bcl-2 expression (RT-PCR, Western blot) in U266 cells; type: cell-based, human; settings: AG490
# Procedure: Cells are lysed in a buffer composed of 50 mM Tris-Cl, pH 7.4, 5 mM EDTA, 150 mM NaCl, and 0.5% Triton-X 100 containing 1 mg/ml leupeptin and aprotinin, and 1 mM PMSF. Protein content of the cell lysates is quantified by the Bradford assay (Bio-Rad), and […] total protein is dissolved in Laemmli SDS-PAGE sample buffer prior to separation by 10% SDS-PAGE. Proteins are transferred to PVDF membrane and Western blot analysis is performed by standard techniques with ECL detection (Amersham). The Bcl-xL antibody, clone 124 (Dako), is used at a 1:2000 dilution. The Bcl-xL, antibody, clone S-18 (Santa Cruz Biotechnology), is used at a 1:500 dilution. Blots are quantified by densitometry and expression levels were normalized to b-actin (Sigma).
# Total RNA is isolated by lysis in guanidine isothiocyanate followed by centrifugation through a cesium chloride gradient. cDNA is prepared from 200 ng of total RNA in a […] reaction with AMV-RT (Boehringer-Mannheim). […] Tem ml of PCR products are electrophoresed on a 5% acrylamide gel and quantified by phosphorimaging using ImageQuant software (Molecular Dynamics).
# [4] = system: Bcl-xL overexpressing U266 cells; test: Drug-induced apoptosis in U266 cells overexpressing Bcl-xL; type: cell-based, human; settings: stable U266 clones overexpressing Bcl-xL; 24 h for melphalan and mitoxantrone
# Procedure: FIG. 23 Enforced Overexpression of Bcl-x Confers Resistance to Chemotherapy. Panel A: U266 cells are transfected with a CMV expression vector encoding Bcl-x, tagged with the FLAG epitope. Several stable, independent clones overexpressing Bcl-xL, as well as empty vector controls (Neo), are isolated and analyzed by Western blot with antibodies to Bcl-xL, or the FLAG epitope tag. B: The indicated cell lines are incubated with either melphalan (LPAM) or mitoxantrone for 24 h, and apoptosis is monitored by AnnexinV-FITC staining and flow cytometry. Overexpression of Bcl-xL protects the cells from chemotherapy-induced apoptosis.
# These Bcl-xL overexpressing cells are resistant to apoptosis induced by AG490, as predicted since the ectopic Bcl-xL is expressed from a CMV promoter and is thus independent of JAK-STAT signaling. […] These findings support one embodiment of the present invention, that Bcl-x confers resistance to chemotherapy-induced apoptosis, and therefore that inhibition of STAT3 signaling promotes chemotherapy-induced apoptosis.
# [5] = system: 8226 cells; test: Fas-mediated apoptosis (Annexin V, flow cytometry) in 8226 cells; type: cell-based, human; settings: IL-6-independent 8226 cells, AG490 treatment
# Procedure: For surface detection of the Fas receptor, 10^6 cells are suspended in […] PBS with 2.5 mg/ml mouse IgM (Sigma) and […] UB2 antibody (MBL) or IgG1, isotype control serum (Dako). Following 30 min incubation at room temperature, cells are washed with PBS, and incubated in the dark for 30 min with goat anti-mouse Ig-FITC. Fluorescence is measured on a FACScan flow cytometer and analyzed using CellQuest software (Becton Dickinson). For cell cycle analysis, 10^6 cells are fixed in ice-cold ethanol for a minimum of 2 h, washed with PBS, and stained with 5 mg/ml propidium iodide (PI) and […] at 37° C. for 30 min prior to analysis by flow cytometry. Sensitivity to Fas-mediated apoptosis is determined by exposing cells to 500 ng/ml agonistic antibody (CH-11, MBL) or 100 ng/ml Fas ligand (Alexis) for 18-24 h. Apoptosis is measured by staining with Annexin V-FITC (Clontech) and flow cytometry analysis. Fas-specific death is calculated as (% Annexin V positive cells in the CH-11 treated population)−(% Annexin V positive cells in the IgM control population). Programmed cell death in cells transfected with the bicistronic green fluorescent protein vectors (pIRES-EGFP or pIRES-Stat3b) is analyzed after staining with Annexin V-PE (Pharmingen) by two color flow cytometry analysis. […]
smiles,measurement,setting,value
N#C/C(=C\c1ccc(O)c(O)c1)C(=O)NCc1ccccc1 [AG490],apoptotic tumor cells (TUNEL),[1],high numbers of apoptotic cells
same,IL-12-induced IFN-g production by splenocytes,[2],slight suppression
same,expression of Bcl-2,[3],no effect
same,apoptosis induced in Bcl-xL overexpressing cells,[4],resistant
same,sensitivity to Fas-mediated cell death,[5],does not enhance
